Among the data in PubChem BioAssay AID228 (DTP/NCI, 2004) are T/C values, retold here.

The assay deals with BDF1 mice, Friend leukemia sc, tumor weight T/C. As to the kind of experiment: NCI In Vivo Anticancer Drug Screen. Data for tumor model Friend Virus Leukemia (Solid) (subcutaneous) in B6D2F1 (BDF1) mice. The note with it: endpoint: mean tumor weight, higher = larger tumour. Here is the method: The antitumor activity of compounds was measured in mice bearing transplantable tumors. Survival or tumor size were measured and the results are expressed as the measurement made in the treated group (T) divided by the measurement made in the vehicle treated control group (C). The tumor model used in this assay is Friend Virus Leukemia (Solid) (subcutaneous) in B6D2F1 (BDF1) mice

Where [1] appears, read: dose: 12.0 mg/kg/injection, schedule: Q01DX011 (ip), vehicle: carboxymethylcellulose (CMC).
The mark [2] stands for this setting: dose: 25.0 mg/kg/injection, schedule: Q01DX011 (ip), vehicle: carboxymethylcellulose (CMC).
[3] abbreviates: dose: 50.0 mg/kg/injection, schedule: Q01DX011 (ip), vehicle: carboxymethylcellulose (CMC).
Setting [4] is: dose: 100.0 mg/kg/injection, schedule: Q01DX011 (ip), vehicle: carboxymethylcellulose (CMC).
The mark [5] stands for this setting: dose: 200.0 mg/kg/injection, schedule: Q01DX011 (ip), vehicle: carboxymethylcellulose (CMC).
[6] abbreviates: dose: 1.0 mg/kg/injection, schedule: Q01DX011 (ip), vehicle: saline.
[7] abbreviates: dose: 4.0 mg/kg/injection, schedule: Q01DX011 (ip), vehicle: saline.
Where [8] appears, read: dose: 3.0 mg/kg/injection, schedule: Q01DX011 (ip), vehicle: carboxymethylcellulose (CMC).
Where [9] appears, read: dose: 113.0 mg/kg/injection, schedule: Q01DX011 (ip), vehicle: carboxymethylcellulose (CMC).
[10] abbreviates: dose: 0.75 mg/kg/injection, schedule: Q01DX011 (ip), vehicle: carboxymethylcellulose (CMC).
Setting [11] is: dose: 1.5 mg/kg/injection, schedule: Q01DX011 (ip), vehicle: carboxymethylcellulose (CMC).
[12] abbreviates: dose: 6.0 mg/kg/injection, schedule: Q01DX011 (ip), vehicle: carboxymethylcellulose (CMC).

Where “and” joins values, the source holds several entries; their conditions need not be identical. Equal entries are not always repeated. Results filed as inconclusive are left out.

Regarding `C1CN1c1nc(N2CC2)nc(N2CC2)n1`, the T/C runs as follows: (dose: 0.05 mg/kg/injection, schedule: Q01DX011 (ip), vehicle: carboxymethylcellulose (CMC)) 164 % of control and 233 % of control; (dose: 0.1 mg/kg/injection, schedule: Q01DX011 (ip), vehicle: carboxymethylcellulose (CMC)) 161 % of control and 293 % of control; (dose: 0.12 mg/kg/injection, schedule: Q01DX011 (ip), vehicle: carboxymethylcellulose (CMC)) 114 % of control; (dose: 0.15 mg/kg/injection, schedule: Q01DX011 (ip), vehicle: carboxymethylcellulose (CMC)) 41 % of control; (dose: 0.2 mg/kg/injection, schedule: Q01DX011 (ip), vehicle: carboxymethylcellulose (CMC)) 169 % of control and 256 % of control; (dose: 0.2 mg/kg/injection, schedule: Q01DX011 (ip), vehicle: saline) 61 % of control and 76 % of control. Also, the T/C was 26 % of control (dose: 0.3 mg/kg/injection, schedule: Q01DX011 (ip), vehicle: carboxymethylcellulose (CMC)); 49 % of control (dose: 0.3 mg/kg/injection, schedule: Q01DX011 (ip), vehicle: saline); 68 % of control and 85 % of control (dose: 0.4 mg/kg/injection, schedule: Q01DX011 (ip), vehicle: carboxymethylcellulose (CMC)); 31 % of control and 35 % of control (dose: 0.4 mg/kg/injection, schedule: Q01DX011 (ip), vehicle: saline); 24 % of control (dose: 0.6 mg/kg/injection, schedule: Q01DX011 (ip), vehicle: carboxymethylcellulose (CMC)).

As to `CCCCCCCCCC(C)(O)C#CC(C)(O)CCCCCCCCC` (stereo not drawn), the T/C under setting [1] is 81 % of control; the T/C under setting [2] is 82 % of control; the T/C under setting [3] was 58 % of control and 59 % of control; the T/C under setting [4] was 55 % of control; the T/C under setting [5] is 34 % of control.

`O=C1NC2C(NC(=O)N2Cl)N1Cl` (stereo not drawn): the T/C is, setting by setting: (dose: 20.0 mg/kg/injection, schedule: Q01DX011 (ip), vehicle: saline) 105 % of control; (dose: 40.0 mg/kg/injection, schedule: Q01DX011 (ip), vehicle: saline) 103 % of control.

For `CCN(CC)c1ccc2cc3ccc(=[N+](CC)CC)cc-3oc2c1`, the T/C (dose: 5.0 mg/kg/injection, schedule: Q01DX011 (ip), vehicle: carboxymethylcellulose (CMC)) is 102 % of control.

Turning to `CCn1cnc2c(=S)nc[nH]c21`, the T/C was 105 % of control under setting [2], 66 % of control under setting [3] and 12 % of control under setting [4].

As to `CCOc1ccc(Nc2ncnc3nc[nH]c23)cc1CN(CCCl)CCCl`, the T/C under setting [6] was 101 % of control and the T/C under setting [7] is 70 % of control.

As to `NC(=O)c1ccc(NC(=O)CCC(=O)Nc2ccc(C(N)=O)cn2)nc1`, the T/C runs as follows: (dose: 0.5 mg/kg/injection, schedule: Q01DX011 (ip), vehicle: saline) 106 % of control; under setting [6], 117 % of control; (dose: 2.0 mg/kg/injection, schedule: Q01DX011 (ip), vehicle: saline) 106 % of control; under setting [7], 57 % of control.

Regarding `Cc1ncc(CO)c(C)c1O`, the T/C by setting is: (dose: 22.75 mg/kg/injection, schedule: Q01DX011 (ip), vehicle: carboxymethylcellulose (CMC)) 54 % of control; (dose: 45.5 mg/kg/injection, schedule: Q01DX011 (ip), vehicle: carboxymethylcellulose (CMC)) 111 % of control; (dose: 121.0 mg/kg/injection, schedule: Q01DX011 (ip), vehicle: carboxymethylcellulose (CMC)) 84 % of control and 98 % of control; (dose: 126.0 mg/kg/injection, schedule: Q01DX011 (ip), vehicle: carboxymethylcellulose (CMC)) 112 % of control.

With `Nc1nc(F)nc2c1ncn2C1OC(CO)C(O)C1O` (stereo not drawn), the T/C was 155 % of control (dose: 0.06 mg/kg/injection, schedule: Q01DX011 (ip), vehicle: saline); 120 % of control (dose: 0.12 mg/kg/injection, schedule: Q01DX011 (ip), vehicle: saline); 225 % of control (dose: 0.75 mg/kg/injection, schedule: Q01DX011 (ip), vehicle: saline); 203 % of control (dose: 1.5 mg/kg/injection, schedule: Q01DX011 (ip), vehicle: saline); 199 % of control (dose: 3.0 mg/kg/injection, schedule: Q01DX011 (ip), vehicle: saline).

As for `CC(C)Sc1nc(N)nc2nc[nH]c12`, the T/C under setting [8] is 97 % of control, the T/C under setting [2] was 14 % of control and the T/C under setting [3] was 2 % of control.

Regarding `Brc1ncnc2nc[nH]c12`, the T/C was 51 % of control (dose: 75.0 mg/kg/injection, schedule: Q01DX011 (ip), vehicle: carboxymethylcellulose (CMC)); 82 % of control under setting [9]; 43 % of control (dose: 171.0 mg/kg/injection, schedule: Q01DX011 (ip), vehicle: carboxymethylcellulose (CMC)); 34 % of control (dose: 256.0 mg/kg/injection, schedule: Q01DX011 (ip), vehicle: carboxymethylcellulose (CMC)).

Regarding `Cc1nc(N)nc(N)c1-c1ccc(Cl)c(Cl)c1`, the T/C is, setting by setting: under setting [10], 96 % of control; under setting [11], 105 % of control; under setting [8], 59 % of control.

Take `Nc1nc(SCc2ccccc2Cl)c2ncn(C3OC(CO)C(O)C3O)c2n1` (stereo not drawn): the T/C is 102 % of control (dose: 0.38 mg/kg/injection, schedule: Q01DX011 (ip), vehicle: carboxymethylcellulose (CMC)); 70 % of control under setting [10]; 61 % of control (dose: 1.0 mg/kg/injection, schedule: Q01DX011 (ip), vehicle: carboxymethylcellulose (CMC)); 83 % of control under setting [11]; 61 % of control and 68 % of control under setting [8]; 61 % of control and 68 % of control under setting [12]. Moreover, the T/C by setting is: under setting [1], 16 % of control and 41 % of control; under setting [2], 10 % of control and 28 % of control; under setting [3], 2 % of control.

In the case of `O=C(Nc1ccc(C2=NCCCN2)cc1)c1ccc(NC(=O)c2ccc(C3=NCCCN3)cc2)cc1`, the T/C is 49 % of control (dose: 4.0 mg/kg/injection, schedule: Q01DX011 (ip), vehicle: carboxymethylcellulose (CMC)); 9 % of control under setting [12]; 1 % of control (dose: 8.0 mg/kg/injection, schedule: Q01DX011 (ip), vehicle: carboxymethylcellulose (CMC)).

With `Cc1cc2nc3c(=O)[nH]c(=O)nc-3n(CC(O)C(O)C(O)C(O)CO)c2cc1C` (stereo not drawn), the T/C (dose: 56.0 mg/kg/injection, schedule: Q01DX011 (ip), vehicle: carboxymethylcellulose (CMC)) was 103 % of control and the T/C under setting [9] was 110 % of control.

Take `N#[N+]c1cnc([O-])[nH]c1=O`: the T/C is 113 % of control (dose: 1.3 mg/kg/injection, schedule: Q01DX011 (ip), vehicle: carboxymethylcellulose (CMC)) and 49 % of control (dose: 11.5 mg/kg/injection, schedule: Q01DX011 (ip), vehicle: carboxymethylcellulose (CMC)).

Regarding `CCCCCC(=O)O[C@]1(C(C)=O)CC[C@H]2[C@@H]3CCC4=CC(=O)CC[C@]4(C)[C@H]3CC[C@@]21C`, the T/C is, setting by setting: (dose: 125.0 mg/kg/injection, schedule: Q01DX011 (sc), vehicle: steriod suspending solution) 173 % of control; (dose: 250.0 mg/kg/injection, schedule: Q01DX011 (sc), vehicle: steriod suspending solution) 166 % of control; (dose: 375.0 mg/kg/injection, schedule: Q01DX011 (sc), vehicle: steriod suspending solution) 156 % of control; (dose: 750.0 mg/kg/injection, schedule: Q01DX011 (sc), vehicle: steriod suspending solution) 124 % of control.

As to `O=C(Nc1ccc(C2=NCCN2)cc1)c1ccc(C(=O)Nc2ccc(C3=NCCN3)cc2)c(Cl)c1`, the T/C reads like this: (dose: 0.31 mg/kg/injection, schedule: Q01DX011 (ip), vehicle: carboxymethylcellulose (CMC)) 66 % of control; (dose: 0.5 mg/kg/injection, schedule: Q01DX011 (ip), vehicle: carboxymethylcellulose (CMC)) 93 % of control; (dose: 0.63 mg/kg/injection, schedule: Q01DX011 (ip), vehicle: carboxymethylcellulose (CMC)) 50 % of control; (dose: 1.25 mg/kg/injection, schedule: Q01DX011 (ip), vehicle: carboxymethylcellulose (CMC)) 40 % of control and 46 % of control; (dose: 2.5 mg/kg/injection, schedule: Q01DX011 (ip), vehicle: carboxymethylcellulose (CMC)) 39 % of control; (dose: 10.0 mg/kg/injection, schedule: Q01DX011 (ip), vehicle: carboxymethylcellulose (CMC)) 93 % of control. In addition, the T/C was 21 % of control [middle of 4 runs] (dose: 15.0 mg/kg/injection, schedule: Q01DX011 (ip), vehicle: carboxymethylcellulose (CMC)) and 6 % of control (dose: 20.0 mg/kg/injection, schedule: Q01DX011 (ip), vehicle: carboxymethylcellulose (CMC)).

With `Clc1ncnc2nc[nH]c12`, the T/C by setting is: under setting [3], 71 % of control; under setting [4], 47 % of control; under setting [5], 18 % of control.
